Legend:
[1] = target: CDK1/cyclin B (Marthasterias glacialis)
[2] = target: Cyclin-dependent kinase 5/CDK5 activator 1 (Homo sapiens, UniProt Q00535); assay: Inhibitory activity against recombinant mammalian cyclin-dependent kinase 5 (p35 NCK5a) expressed in Escherichia coli
[3] = target: Glycogen synthase kinase-3 beta (Homo sapiens, UniProt P49841); assay: Inhibition of glycogen synthase kinase-3 beta, purified from porcine brain or expressed in and purified from insect Sf9 cells; type: cell-based, Sus scrofa
Sequence of Glycogen synthase kinase-3 beta (P49841 whole entry): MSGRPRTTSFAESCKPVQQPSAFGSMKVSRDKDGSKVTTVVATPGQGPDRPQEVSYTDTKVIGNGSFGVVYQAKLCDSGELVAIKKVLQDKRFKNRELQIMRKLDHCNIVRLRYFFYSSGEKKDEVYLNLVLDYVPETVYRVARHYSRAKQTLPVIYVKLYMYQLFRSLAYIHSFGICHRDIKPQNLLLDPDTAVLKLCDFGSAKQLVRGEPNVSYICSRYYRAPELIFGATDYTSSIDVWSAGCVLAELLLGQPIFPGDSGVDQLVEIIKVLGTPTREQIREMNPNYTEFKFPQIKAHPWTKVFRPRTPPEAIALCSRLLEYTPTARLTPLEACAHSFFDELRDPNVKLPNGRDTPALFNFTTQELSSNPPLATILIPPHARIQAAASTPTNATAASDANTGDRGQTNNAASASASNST

Sequence of Cyclin-dependent kinase 5/CDK5 activator 1 (Q00535 whole entry): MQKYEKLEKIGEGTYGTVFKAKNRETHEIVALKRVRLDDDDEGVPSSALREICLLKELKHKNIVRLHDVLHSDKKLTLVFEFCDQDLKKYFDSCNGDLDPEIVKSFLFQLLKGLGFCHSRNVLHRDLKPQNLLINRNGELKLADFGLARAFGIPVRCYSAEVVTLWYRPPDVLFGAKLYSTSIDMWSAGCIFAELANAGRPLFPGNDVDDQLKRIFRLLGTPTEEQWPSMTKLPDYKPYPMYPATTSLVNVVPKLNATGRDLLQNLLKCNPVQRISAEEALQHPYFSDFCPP
Sequence of Cyclin-dependent kinase 5/CDK5 activator 1 (Q15078 whole entry, further chain): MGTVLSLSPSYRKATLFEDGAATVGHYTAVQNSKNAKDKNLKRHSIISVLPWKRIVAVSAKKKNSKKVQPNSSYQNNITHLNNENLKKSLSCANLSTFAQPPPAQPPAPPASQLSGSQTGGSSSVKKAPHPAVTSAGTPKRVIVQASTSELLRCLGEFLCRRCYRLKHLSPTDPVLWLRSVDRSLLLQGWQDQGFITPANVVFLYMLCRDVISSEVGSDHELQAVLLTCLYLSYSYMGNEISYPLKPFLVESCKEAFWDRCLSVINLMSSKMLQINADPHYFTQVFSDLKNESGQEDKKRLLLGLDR

Row | SMILES | IC50 [1] [µM] | IC50 [2] [µM] | IC50 [3] [µM]
1 | c1coc(-c2cc3[nH]ccnc-3n2)c1 | 12 | 9.3 | 15
2 | Clc1ccc(-c2[nH]c3nccnc3c2CC2CCCCC2)cc1 | 10 | > 100 | 8
3 | c1ccc(-c2cc3[nH]c4ccccc4nc-3n2)cc1 | > 100 | > 100 | > 100
4 | Oc1cccc(-c2cc3[nH]ccnc-3n2)c1 | 2.5 | – | –
5 | Clc1ccc(-c2[nH]c3nccnc3c2Cc2ccccc2)cc1 | – | > 100 | 6.8
6 | Cc1c[nH]c2cc(-c3ccccc3)nc-2n1 | 69 | 100 | > 100
7 | COc1cc(-c2cc3[nH]ccnc-3n2)cc(OC)c1OC | 100 | > 100 | 85
8 | Oc1ccc(-c2[nH]c3nccnc3c2CC2CC2)cc1 | 50 | > 100 | 3
9 | Cc1c(C2(c3ccc(Cl)cc3)CC2)[nH]c2nccnc12 | – | 100 | 18
10 | Clc1cc(Cl)cc(-c2cc3[nH]ccnc-3n2)c1 | > 100 | > 100 | > 100
11 | COc1ccc(-c2[nH]c3nccnc3c2CC2CC2)cc1 | 1 | > 100 | 1.1
12 | CCCCCCCc1c(-c2ccc(OC)cc2)[nH]c2nccnc12 | 7 | > 100 | > 10
13 | COc1cc(OC)cc(-c2cc3[nH]ccnc-3n2)c1 | 100 | > 100 | 60
14 | Clc1ccc(-c2cc3[nH]ccnc-3n2)cc1 | 1.8 | – | –
15 | FC(F)(F)c1ccc(-c2cc3[nH]ccnc-3n2)cc1 | 6 | > 100 | 7.2
16 | c1c[nH]c2cc(-c3ccc(C4OCCO4)cc3)nc-2n1 | 8 | 15 | 20
17 | c1ccc(-c2cc3[nH]ccnc-3n2)nc1 | 21 | 53 | 15
18 | CN(C)c1ccc(-c2cc3[nH]ccnc-3n2)cc1 | 20 | > 100 | 12
19 | Cc1c(-c2ccc(OS(=O)(=O)N(C)C)cc2)[nH]c2nccnc12 | 0.7 | 0.9 | 0.5
20 | Oc1ccccc1-c1cc2[nH]ccnc-2n1 | 2.5 | 3 | 6.5
21 | COc1ccc(-c2[nH]c3nccnc3c2CC2CCCCC2)cc1 | 5 | > 100 | 6.8
22 | Cn1c(-c2ccccc2)cc2nccnc21 | 100 | – | > 100
23 | c1ccc2c(-c3cc4[nH]ccnc-4n3)cccc2c1 | > 100 | 80 | 27
24 | COc1ccc(-c2cc3ccc[nH]c-3n2)cc1 | 60 | – | –

Now from value to compound:

Row | IC50 [1] [µM] | IC50 [2] [µM] | IC50 [3] [µM] | SMILES
25 | 5 | 4 | 2.3 | c1ccc(-c2cc3[nH]ccnc-3n2)cc1
26 | 2.3 | 1 | 1.9 | Fc1ccc(-c2cc3[nH]ccnc-3n2)cc1
27 | 0.2 | > 100 | 5.9 | CCCCc1c(-c2ccc(Cl)cc2)[nH]c2nccnc12
28 | 30 | 100 | 1 | Clc1ccc(C2(c3cc4[nH]ccnc-4n3)CC2)cc1
29 | 3 | 10 | 2.6 | Cc1ccc(-c2cc3[nH]ccnc-3n2)cc1
30 | 0.4 | 0.5 | 0.4 | CCCc1c(-c2ccc(OC)cc2)[nH]c2nccnc12
31 | – | 2 | 0.5 | COc1ccc(-c2[nH]c3nccnc3c2C(C)C)cc1
32 | 1.1 | 1 | 2 | COc1ccc(-c2[nH]c3nccnc3c2C)cc1OC
33 | 7 | 2 | 1.2 | c1csc(-c2cc3[nH]ccnc-3n2)c1
34 | 2.3 | 1 | 0.8 | c1c[nH]c2cc(-c3ccsc3)nc-2n1
35 | 1 | 2 | 0.6 | C=CCc1c(-c2ccc(OC)cc2)[nH]c2nccnc12
36 | – | 3 | 2.5 | COc1ccc(-c2[nH]c3nccnc3c2CCCCl)cc1
37 | 2 | 4 | 1.1 | COc1ccc(-c2cc3[nH]ccnc-3n2)cc1
38 | 25 | 1.2 | 1.8 | CCCc1c(-c2ccc(O)cc2)[nH]c2nccnc12
39 | – | > 100 | 6 | Brc1ccc(-c2cc3[nH]ccnc-3n2)cc1
40 | 0.85 | 13 | 0.75 | CC(C)c1c(-c2ccc(Cl)cc2)[nH]c2nccnc12
41 | 0.3 | 0.8 | 0.46 | COc1ccc(-c2[nH]c3nccnc3c2C)cc1
42 | 2 | > 100 | 1 | c1ccc(Cc2c(-c3ccccc3)[nH]c3nccnc23)cc1
43 | 20 | 23 | 3.3 | COc1ccccc1-c1cc2[nH]ccnc-2n1
44 | 0.25 | 0.2 | 0.52 | Cc1c(-c2ccc(O)cc2)[nH]c2nccnc12
45 | 3 | 13 | 4.8 | N#Cc1ccc(-c2cc3[nH]ccnc-3n2)cc1
46 | – | 5 | 1.7 | Cc1c(-c2ccc(Cl)cc2)[nH]c2nccnc12
47 | 13 | 10 | 3.2 | COc1cccc(-c2cc3[nH]ccnc-3n2)c1
48 | 1.2 | 1 | 1.2 | Oc1ccc(-c2cc3[nH]ccnc-3n2)cc1
49 | – | 1.5 | 0.92 | CCCCc1c(-c2ccc(OC)cc2)[nH]c2nccnc12 [ALOISINE]
